Measurements reported in paper PMC10536189 (Microorganisms, 2023).
Where two headings read alike, the source gives them in different places. Where no end group is shown, it is not given here.

Tests used:
[1] = test system: Mycobacterium avium-intracellulare; format: cell-based, Mycobacterium intracellulare serotype 7 NCTC10682; settings: Peptide 14 at 20 µg/mL
[2] = test system: Mycobacterium tuberculosis (MTB); format: cell-based, Mycobacterium tuberculosis (laboratory strain H37Rv)
Mycobacterium celatum = format: cell-based, Mycobacterium celatum (clinical isolate); settings: Peptide 14 at 20 µg/mL
[3] = test system: Mycobacterium avium subsp. paratuberculosis (MAP); format: cell-based
Mycobacterium marinum = format: cell-based, Mycobacterium marinum NCTC 2275; settings: Peptide 14 at 20 µg/mL, 30 °C
Mycobacterium abscessus = format: cell-based, Mycobacterium abscessus (clinical human isolate); settings: Peptide 14 at 20 µg/mL
M. bovis = format: cell-based
M. tuberculosis = format: cell-based, Mycobacterium tuberculosis (laboratory strain H37Rv); settings: for Time to Positivity (Days.Hours) Experiment 2: control (0 µg/mL) 6.12; for Time to Positivity (Days.Hours) Experiment 1: control (0 µg/mL) 6.19
mycobacteria [4] = assay: TTP in VersaTrek system; format: cell-based; settings: Peptide 14D; VersaTrek (ThermoFisher); Figure S1
Protocol: (§1) Peptide 14D was used to check if other machines that are routinely used in medical microbiology for the detection of mycobacteria show shorter TTP as well. BacT/Alert (Biomerieux, Marcy-l’Étoile, France and VersaTrek (ThermoFisher, Waltham, MA, United States) were tested, and shorter TTP was shown for both systems (see Figure S1 in the Supplementary Materials).

MTB H37Rv = format: cell-based, Mycobacterium tuberculosis H37Rv; settings: 14D at 1 µg/mL
mycobacteria [5] = assay: TTP in BacT/Alert system; format: cell-based; settings: Peptide 14D; BacT/Alert (Biomerieux); Figure S1
Protocol: as §1

Question: WKIVFWWRR-NH2 [Peptide 14] was tested. Which Effect on growth [1] did it give?
Answer: growth stimulating effect

Question: And the “Concentration at which growth inhibition of MTB is observed” value [2]?
Answer: 50 µg/mL

Question: And the “Effect on growth of MTB compared to control” value [2]?
Answer: slight improvements

Question: What about the “Upper end of concentration range with hormetic response / growth stimulation in MTB” value [2] of the same substance?
Answer: 10 µg/mL

Question: And the Effect on growth (Mycobacterium celatum)?
Answer: growth stimulating effect

Question: What about the “Dependence of growth-enhancing effect on starting inoculum” value [3] of the same substance?
Answer: lower inocula being more greatly affected

Question: What about the “Effect on growth of MAP compared to control” value ([3]; peptide 20 µg/mL, […], 37 °C) of the same substance?
Answer: strongest effects

Question: What about the Effect on growth (Mycobacterium marinum) of the same substance?
Answer: growth stimulating effect

Question: What about the Effect on growth (Mycobacterium abscessus) of the same substance?
Answer: enhance the growth

Question: What about the Effect on growth (M. bovis) of the same substance?
Answer: growth stimulating effect

Question: What about the “Effect on TTP of MTB in words” value (M. tuberculosis; peptide 10 µg/mL, MGIT) of the same substance?
Answer: strong hormetic response

Question: And the “Time to Positivity (Days.Hours) Experiment 2a” value (M. tuberculosis; peptide 10 µg/mL, MGIT, diluted inoculum, technical repeat 2a, TB control (no peptide) 15.01)?
Answer: 13.23 Days.Hours

Question: What about the “Time to Positivity (Days.Hours) Experiment 2b” value (M. tuberculosis; peptide 10 µg/mL, MGIT, diluted inoculum, technical repeat 2b, TB control (no peptide) 15.20) of the same substance?
Answer: 14.01 Days.Hours

Question: And the “Time to Positivity (Days.Hours) Experiment 1a” value (M. tuberculosis; peptide 10 µg/mL, MGIT, less diluted inoculum, technical repeat 1a, TB control (no peptide) 7.02)?
Answer: 6.01 Days.Hours

Question: And the “Time to Positivity (Days.Hours) Experiment 1b” value (M. tuberculosis; peptide 10 µg/mL, MGIT, less diluted inoculum, technical repeat 1b, TB control (no peptide) 7.01)?
Answer: 6.12 Days.Hours

Question: And the “Average % Faster than Control” value (M. tuberculosis; peptide 10 µg/mL, overall average of the averages of experiments 1a/1b and 2a/2b, negative = slower)?
Answer: 9.1%

Question: With wkivfwwrr-CONH2 [Peptide 14D] as the substance, how does the “Effect on TTP” value (mycobacteria [4]) read?
Answer: shorter TTP

Question: And the “Concentration at which growth inhibition of MTB is observed” value [2]?
Answer: ≥ 10 µg/mL

Question: What about the “Concentration with strong sustained growth stimulation of MTB” value [2] of the same substance?
Answer: 1 µg/mL

Question: What about the “Growth enhancement after the peptide was removed” value [3] of the same substance?
Answer: reversible

Question: What about the “Effect on growth of MAP (growth-enhancing activity) of protease-stabilised peptides” value ([3]; peptide 10 µg/mL, absorbance at 600 nm) of the same substance?
Answer: small improvement in activity

Question: And the “Copy number compared with MTB control” value (MTB H37Rv)?
Answer: higher copy number

Question: And the Copy number (MTB H37Rv; […], duplicates, cydA Taqman qPCR)?
Answer: 1762000

Question: And the “Effect on TTP” value (mycobacteria [5])?
Answer: shorter TTP

Question: And the “Time to Positivity (Days.Hours) Experiment 2” value (M. tuberculosis; Peptide 14D 0.1 µg/mL, MGIT)?
Answer: 5.19 Days.Hours

Question: And the “Time to Positivity (Days.Hours) Experiment 1” value (M. tuberculosis; Peptide 14D 0.1 µg/mL, MGIT)?
Answer: 5.12 Days.Hours

Question: What about the “Average % Faster than Control” value (M. tuberculosis; Peptide 14D 0.1 µg/mL, average of two independent experiments) of the same substance?
Answer: 15.0%

Question: And the “Time to Positivity (Days.Hours) Experiment 2” value (M. tuberculosis; Peptide 14D 0.5 µg/mL, MGIT)?
Answer: 5.17 Days.Hours

Question: What about the “Time to Positivity (Days.Hours) Experiment 1” value (M. tuberculosis; Peptide 14D 0.5 µg/mL, MGIT) of the same substance?
Answer: 5.17 Days.Hours

Question: And the “Average % Faster than Control” value (M. tuberculosis; Peptide 14D 0.5 µg/mL, average of two independent experiments)?
Answer: 14.1%

Question: And the “Time to Positivity (Days.Hours) Experiment 2” value (M. tuberculosis; Peptide 14D 1 µg/mL, MGIT)?
Answer: 5.08 Days.Hours

Question: What about the “Time to Positivity (Days.Hours) Experiment 1” value (M. tuberculosis; Peptide 14D 1 µg/mL, MGIT) of the same substance?
Answer: 5.05 Days.Hours

Question: What about the “Average % Faster than Control” value (M. tuberculosis; Peptide 14D 1 µg/mL, average of two independent experiments) of the same substance?
Answer: 21.6%

Question: And the “Increase of time to positivity, first experiment” value (M. tuberculosis; Peptide 14D 10 µg/mL)?
Answer: 8 h

Question: What about the “Increase of time to positivity, second experiment” value (M. tuberculosis; Peptide 14D 10 µg/mL) of the same substance?
Answer: 20 h

Question: And the “Time to Positivity (Days.Hours) Experiment 2” value (M. tuberculosis; Peptide 14D 10 µg/mL, MGIT)?
Answer: 7.08 Days.Hours

Question: And the “Time to Positivity (Days.Hours) Experiment 1” value (M. tuberculosis; Peptide 14D 10 µg/mL, MGIT)?
Answer: 7.03 Days.Hours

Question: What about the “Average % Faster than Control” value (M. tuberculosis; Peptide 14D 10 µg/mL, average of two independent experiments, negative = slower) of the same substance?
Answer: −7.3%

Question: What about the “Time to Positivity (Days.Hours) Experiment 2” value (M. tuberculosis; Peptide 14D 25 µg/mL, MGIT) of the same substance?
Answer: 9.17 Days.Hours

Question: What about the “Time to Positivity (Days.Hours) Experiment 1” value (M. tuberculosis; Peptide 14D 25 µg/mL, MGIT) of the same substance?
Answer: 9.21 Days.Hours

Question: And the “Average % Faster than Control” value (M. tuberculosis; Peptide 14D 25 µg/mL, average of two independent experiments, negative = slower)?
Answer: −48.7%

Question: What about the “Delay of growth (days to reach positivity relative to control)” value (M. tuberculosis; Peptide 14D 50 µg/mL) of the same substance?
Answer: about triple

Question: And the “Time to Positivity (Days.Hours) Experiment 1” value (M. tuberculosis; Peptide 14D 50 µg/mL, MGIT)?
Answer: 19.15 Days.Hours

Question: What about the “Average % Faster than Control” value (M. tuberculosis; Peptide 14D 50 µg/mL, average of two independent experiments, negative = slower) of the same substance?
Answer: −207.6%
